Results from ChEMBL document CHEMBL2074355, “Biochemical mechanism of modulation of human P-glycoprotein (ABCB1) by curcumin I, II, and III purified from Turmeric powder” (Biochem Pharmacol, 2004).

Columns and labels:
Format in all cases: functional, cell-based
[1] = biological target: T1, ATP-dependent translocase ABCB1 (Homo sapiens, UniProt P08183); experiment: TP_TRANSPORTER: increase in Rhodamine 123 intracellular accumulation in human KB-V1 cells
[2] = biological target: T1, ATP-dependent translocase ABCB1; experiment: TP_TRANSPORTER: increase in bodipy-FL-vinblastine intracellular accumulation in human KB-V1 cells
[3] = biological target: T1, ATP-dependent translocase ABCB1; experiment: TP_TRANSPORTER: increase in Calcein-AM intracellular accumulation in human KB-V1 cells

T1 sequence (P08183 whole entry): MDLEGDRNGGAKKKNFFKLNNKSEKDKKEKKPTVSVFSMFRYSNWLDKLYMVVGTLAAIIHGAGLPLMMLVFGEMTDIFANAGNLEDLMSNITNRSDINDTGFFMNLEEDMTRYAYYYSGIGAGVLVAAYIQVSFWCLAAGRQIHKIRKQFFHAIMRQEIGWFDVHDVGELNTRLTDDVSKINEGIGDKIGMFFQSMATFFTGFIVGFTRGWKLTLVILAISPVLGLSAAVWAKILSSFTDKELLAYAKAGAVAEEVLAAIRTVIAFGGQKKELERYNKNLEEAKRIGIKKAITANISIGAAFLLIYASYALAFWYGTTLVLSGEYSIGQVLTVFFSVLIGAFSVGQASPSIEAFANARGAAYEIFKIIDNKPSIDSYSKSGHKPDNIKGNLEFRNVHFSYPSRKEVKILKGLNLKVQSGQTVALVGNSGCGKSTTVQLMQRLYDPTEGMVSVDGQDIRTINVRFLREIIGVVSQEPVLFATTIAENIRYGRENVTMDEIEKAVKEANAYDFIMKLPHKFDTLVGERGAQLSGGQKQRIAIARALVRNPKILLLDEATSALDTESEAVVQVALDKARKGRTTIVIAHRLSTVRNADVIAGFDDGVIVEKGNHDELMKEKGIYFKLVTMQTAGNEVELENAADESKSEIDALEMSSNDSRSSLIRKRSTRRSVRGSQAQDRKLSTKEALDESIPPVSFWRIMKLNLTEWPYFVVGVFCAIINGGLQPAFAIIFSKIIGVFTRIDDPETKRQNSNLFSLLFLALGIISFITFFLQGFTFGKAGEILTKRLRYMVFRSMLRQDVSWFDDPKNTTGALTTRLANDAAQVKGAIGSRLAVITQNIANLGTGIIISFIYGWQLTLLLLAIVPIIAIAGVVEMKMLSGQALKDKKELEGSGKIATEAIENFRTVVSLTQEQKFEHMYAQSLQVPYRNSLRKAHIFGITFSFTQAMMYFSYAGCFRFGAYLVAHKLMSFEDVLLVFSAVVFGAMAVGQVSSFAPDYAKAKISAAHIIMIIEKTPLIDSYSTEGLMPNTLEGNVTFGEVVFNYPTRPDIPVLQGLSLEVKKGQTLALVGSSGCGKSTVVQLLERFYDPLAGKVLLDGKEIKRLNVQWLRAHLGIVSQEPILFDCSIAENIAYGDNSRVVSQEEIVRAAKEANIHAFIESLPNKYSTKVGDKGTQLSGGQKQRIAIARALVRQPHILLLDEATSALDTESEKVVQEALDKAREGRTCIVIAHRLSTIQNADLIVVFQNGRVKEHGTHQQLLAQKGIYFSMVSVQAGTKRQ

- Activity [1]: inhibitor [+]
- Activity [2]: inhibitor [+]
- Activity [3]: inhibitor [+]
Structure (SMILES): COc1cc(/C=C/C(=O)CC(=O)/C=C/c2ccc(O)c(OC)c2)ccc1O [CURCUMIN]
